Reference: US4376119A, “Benzothiazine derivative” (priority 1981, dated 1983)
Like-named read-outs stand apart in the source and are kept apart here.

Experiments:
[1] = Incidence of gastric disorders (erosion) in rats; conditions: rat, in vivo, po
Description: (§1) The incidence of gastric disorders in rats was tested as follows: Eight-weeks-old male rats of the Wistar strain were used in groups of 5 to 7. After they were fasted for 18 hours or more, a test compound was administered orally. Six hours later, each rat was sacrificed by decapitation. The stomach was removed, filled with 10 ml of physiological saline, and then fixed in 5% formalin. After about 10 minutes, the stomach was incised through the greater curvature and the presence or absence of gastric disorders (in particular, erosion) was examined by visual observation. According to Litchfield-Wilcoxon's method, the dose causing erosion to occur in 50% of the test animals, UD50, was calculated on an all-or-none basis.

[2] = system: carrageenin-induced edema; assay: Carrageenin-induced edema suppression in rats (anti-inflammatory activity); type: in vivo, rat (male, Wistar strain); conditions: for ED50: read-out: Anti-inflammatory activity, ED50
Description: Anti-inflammatory activity was tested as follows: Male rats of the Wistar strain were used in groups of 7. A test compound was suspended in a 0.2% carboxymethyl cellulose solution and orally administered in a dose of 0.5 ml/100 g of body weight. […] Three hours after injection of carrageenin, each rat was sacrificed by ether. The feet of both hind legs were amputated at the ankle joint and weighed to detect the difference in weight between both feet. Then, the ability of the test compound to suppress the carrageenin-induced edema was evaluated by comparing the foot weight difference of the test group with that of a control group (consisting of rats to which the solvent alone was administered). Specifically, the rate of suppression of the edema was calculated according to the following equation: [formula]

[3] = system: carrageenin-induced edema; assay: Duration of anti-inflammatory activity (carrageenin edema, varied premedication time); type: in vivo, rat (male, Wistar strain); conditions: for Rate of suppression of edema: dose = ED50
Description: The premedication time was defined as the time interval between the administration of a test compound and the injection of carrageenin.

[4] = Table 1; literature value: Pharmacometrics, 6(6), 1285 (1972) for indomethacin; Folia Pharmacologica Japonica, 69, 319 (1973) for diclofenac; cited from earlier work
[5] = system: stomach (gastric disorders, erosion); assay: Incidence of gastric disorders (erosion) in rats; conditions: Table 1; ratio of UD50 (gastric) to ED50 (edema)
Description: as §1

in vivo = conditions: mouse, in vivo, po
Description: (§2) A test compound was suspended in a 0.2% carboxymethyl cellulose solution and orally administered in a dose of 0.1 ml/10 g of body weight. […] The LD50 value was calculated on the basis of the death rates on the final day.

[6] = cited from earlier work
mice = assay: in vivo; conditions: for Number of deaths/total number of test animals: p.o.
Description: as §2

[7] = Rattus norvegicus, po, 3 h, read-out: Rate of suppression of edema
[8] = 3 h, Table 1, rat, oral, carrageenin edema
[9] = Rattus norvegicus, po, 3 h, p.o., read-out: Rate of suppression of edema
[10] = Rattus norvegicus, po, 3 h, 1.25 mg/kg, p.o., read-out: Rate of suppression of edema
[11] = Rattus norvegicus, po, 3 h, 2.5 mg/kg, p.o., read-out: Rate of suppression of edema
[12] = Rattus norvegicus, po, 3 h, 5.0 mg/kg, p.o., read-out: Rate of suppression of edema

Row | SMILES | TD50 at 6 h [1] | Rate of suppression of edema ([3]; premedicated 1 hr.) | Rate of suppression of edema ([3]; premedicated 3 hr.) | Rate of suppression of edema ([3]; premedicated 6 hr.) | Rate of suppression of edema ([3]; premedicated 24 hr.) | ED50 [2, 8] | Rate of suppression of edema ([3]; premedicated 12 hr.) | Anti-inflammatory activity (in words) ([6]; prior art) | LD50 at 168 h (in vivo) | Rate of suppression of edema ([3]; premedicated 48 hr.) | other results
1 | O=C(O)Cc1ccccc1Nc1c(Cl)cccc1Cl [Diclofenac, diclofenac] | 9.2 mg/kg | 45.9% | 24.7% | 17.6% | -1.2% | – | – | – | – | – | ED50 ([2]; Rattus norvegicus, po, 3 h): 5 mg/kg; inhibition in vivo at 2.5 mg/kg [2, 7]: 29.7%; inhibition in vivo at 5 mg/kg [2, 7]: 48.5%; inhibition in vivo at 10 mg/kg [2, 7]: 69.3%
2 | Cc1cccc(NC(=O)C2C(=O)c3ccccc3S(=O)(=O)N2C)n1 (stereo not shown) [6-Methyl-2-pyridyl compound, N-(6-methyl-2-pyridyl)-3,4-dihydro-2-methyl-4-oxo-2H-1,2-benzothiazine-3-carboxamide 1,1-dioxide] | 5.1 mg/kg | – | – | – | – | 4.5 mg/kg | – | – | – | – | inhibition in vivo at 1.75 mg/kg ([2]; Rattus norvegicus, po, 3 h, 1.75 mg/kg, p.o., read-out: Rate of suppression of edema): 27.4%; inhibition in vivo at 6.5 mg/kg [2, 9]: 58.9%
3 | CN1C(C(=O)Nc2ccc(Cl)cn2)C(=O)c2ccccc2S1(=O)=O (stereo not shown) [5-Chloro-2-pyridyl compound, N-(5-chloro-2-pyridyl)-3,4-dihydro-2-methyl-4-oxo-2H-1,2-benzothiazine-3-carboxamide 1,1-dioxide] | – | – | – | – | – | – | – | – | – | – | inhibition in vivo at 6.5 mg/kg [2, 9]: 18.9%
4 | COc1ccc2c(c1)c(CC(=O)O)c(C)n2C(=O)c1ccc(Cl)cc1 [Indomethacin, indomethacin] | 5.4 mg/kg | 49.4% | 57.6% | 29.4% | -3.5% | – | 18.8% | – | – | – | Acute toxicity, LD50 [4]: 17 mg/kg; Therapeutic index, UD50/ED50 [5]: 1.2; ED50 ([2]; Rattus norvegicus, po, 3 h): 4.6 mg/kg; inhibition in vivo at 1.25 mg/kg [2, 7]: 19.3%; inhibition in vivo at 2.5 mg/kg [2, 7]: 22.8%; inhibition in vivo at 5 mg/kg [2, 7]: 57.4%; inhibition in vivo at 10 mg/kg [2, 7]: 73.3%; selectivity ratio (in vivo): 3.7
5 | CN1C(C(=O)Nc2ccccn2)C(=O)c2ccccc2S1(=O)=O (stereo not shown) [Piroxicam, 3,4-dihydro-2-methyl-4-oxo-N-(2-pyridyl)-2H-1,2-benzothiazine-3-carboxamide 1,1-dioxide] | 8.2 mg/kg | 57.6% | 55.3% | 40.0% | 15.3% | 1.75 mg/kg | 38.8% | potent and long-lasting anti-inflammatory activity | 490 mg/kg | 1.7% | Degree of toxicity and incidence of gastric disorders (in words) ([6]; in vivo): not appreciably different from those of indomethacin and diclofenac; inhibition in vivo at 0.625 mg/kg ([2]; Rattus norvegicus, po, 3 h, 0.625 mg/kg, p.o., read-out: Rate of suppression of edema): 26.9%; inhibition in vivo at 1.25 mg/kg [2, 10]: 42.5%; inhibition in vivo at 2.5 mg/kg [2, 11]: 57%; inhibition in vivo at 5 mg/kg [2, 12]: 76.4%
6 | Cc1cc(NC(=O)C2C(=O)c3ccccc3S(=O)(=O)N2C)no1 (stereo not shown) [Isoxicam, 3,4-dihydro-2-methyl-N-(5-methyl-3-isoxazolyl)-4-oxo-2H-1,2-benzothiazine-3-carboxamide 1,1-dioxide] | 250 mg/kg | 54.2% | 54.2% | 45.8% | 19.5% | 15.5 mg/kg | 36.3% | lower than that of Piroxicam and Sudoxicam | 5000 mg/kg | 1.1% | Degree of toxicity and incidence of gastric disorders (in words) ([6]; in vivo): relatively low; inhibition in vivo at 3.75 mg/kg ([2]; Rattus norvegicus, po, 3 h, 3.75 mg/kg, p.o., read-out: Rate of suppression of edema): 7.5%; inhibition in vivo at 7.5 mg/kg ([2]; Rattus norvegicus, po, 3 h, 7.5 mg/kg, p.o., read-out: Rate of suppression of edema): 32.3%; inhibition in vivo at 15 mg/kg ([2]; Rattus norvegicus, po, 3 h, 15.0 mg/kg, p.o., read-out: Rate of suppression of edema): 46.8%; inhibition in vivo at 30 mg/kg ([2]; Rattus norvegicus, po, 3 h, 30.0 mg/kg, p.o., read-out: Rate of suppression of edema): 69.4%
7 | CN1C(C(=O)Nc2nccs2)C(=O)c2ccccc2S1(=O)=O (stereo not shown) [Sudoxicam, 3,4-dihydro-2-methyl-4-oxo-N-(2-thiazolyl)-2H-1,2-benzothiazine-3-carboxamide 1,1-dioxide] | 11.8 mg/kg | 49.8% | 52.1% | 39.5% | 10.4% | 5.1 mg/kg | 31.6% | potent and long-lasting anti-inflammatory activity | 500 mg/kg | -2.4% | Degree of toxicity and incidence of gastric disorders (in words) ([6]; prior art): not appreciably different from those of indomethacin and diclofenac; Therapeutic index, UD50/ED50 [5]: 2.3; inhibition in vivo at 1.25 mg/kg [2, 10]: 14.9%; inhibition in vivo at 2.5 mg/kg [2, 11]: 30.7%; inhibition in vivo at 5 mg/kg [2, 12]: 45.5%; inhibition in vivo at 10 mg/kg ([2]; Rattus norvegicus, po, 3 h, 10.0 mg/kg, p.o., read-out: Rate of suppression of edema): 69.3%; selectivity ratio (in vivo): 98; Number of deaths/total number of test animals (mice; 200 mg/kg): 0/5; Number of deaths/total number of test animals (mice; 400 mg/kg): 2/5; Number of deaths/total number of test animals (mice; 800 mg/kg): 4/5; Number of deaths/total number of test animals (mice; 1,000 mg/kg): 5/5; Therapeutic index and safety margin (in words) (mice; from Table 1): superior in therapeutic index and safety margin to indomethacin and diclofenac
8 | CN1C(C(=O)Nc2cccc(F)n2)C(=O)c2ccccc2S1(=O)=O (stereo not shown) [Compound of formula (1), N-(6-fluoro-2-pyridyl)-3,4-dihydro-2-methyl-4-oxo-2H-1,2-benzothiazine-3-carboxamide 1,1-dioxide] | 297 mg/kg | 56.6% | 54.8% | 43.2% | 20.7% | 7.5 mg/kg | 39.1% | – | > 5000 mg/kg | 3.4% | inhibition in vivo at 2 mg/kg ([2]; Rattus norvegicus, po, 3 h, 2.0 mg/kg, p.o., read-out: Rate of suppression of edema): 20%; inhibition in vivo at 4 mg/kg ([2]; Rattus norvegicus, po, 3 h, 4.0 mg/kg, p.o., read-out: Rate of suppression of edema): 32%; inhibition in vivo at 8 mg/kg ([2]; Rattus norvegicus, po, 3 h, 8.0 mg/kg, p.o., read-out: Rate of suppression of edema): 54.6%; inhibition in vivo at 16 mg/kg ([2]; Rattus norvegicus, po, 3 h, 16.0 mg/kg, p.o., read-out: Rate of suppression of edema): 66.6%; Anti-inflammatory activity (in words) ([2]; summary of results): potent and long-lasting anti-inflammatory activity; Number of deaths/total number of test animals (mice; 3,000 mg/kg): 0/5; Number of deaths/total number of test animals (mice; 4,000 mg/kg): 0/5; Number of deaths/total number of test animals (mice; 5,000 mg/kg): 0/5; Acute toxicity, LD50 (mice; Table 1, mouse, oral, 7 days): > 5,000 mg/kg; Degree of safety (in words) (mice; mouse, in vivo): very high degree of safety; Duration of anti-inflammatory activity (in words) ([3]; from Table 3): excellent in the duration of anti-inflammatory activity
